The results in this text go back to patent US20210115401A1, “Methods and Materials for the Generation of Regulatory T Cells” (LIFE TECHNLOGIES AS, priority 2006, published 2021).

The structures appear in SMILES notation.

The test system of this assay is CD4+ T cells. Kind of assay: Surface marker (CD4, CD25, CXCR3) and intracellular FOXP3 analysis of expanded CD4+ T cells. Type of assay: cell-based. As for the experimental part: 1) Isolate CD4+ T cells from peripheral blood or leukopheresis products by the use of Dynal® CD4 Positive isolation kit, Dynal® CD4 Negative Isolation kit, Dynabeads® MyPure™ CD4 T cell kit, or CD4 Microbeads MACS®.
2) Stimulate 1.5×10^6 CD4+ T cells with anti-CD3/CD28 Dynabeads (3:1 bead: T cell ratio) in X-vivo medium with 1000 U/ml IL-4 (optional), 20 U/ml IL-2 and 1 μM final concentration of Rapamycin. Total medium volume should be 1.5 ml per 1.5×10^6 CD4+ T cells in a 24 well plate. The protocol can be scaled up.
3) On day 2, add a 10× concentrate that contains 10,000 U/ml IL-4 (optional) and […]. Add this in a volume that is 10% of the initial culture volume.
4) On day 4, add the cytokine concentrate similar to day 2.
5) On day 6, add the 10× cytokine concentrate again and take an aliquot to count the cells. This is the first time that the culture should be disturbed. Based on the count adjust the cell concentration to 1×10^6 CD4 cell/ml. Split wells and add culture medium containing Rapamycin, 1000 U/ml IL-4 (optional), 20 U/ml IL-2 to maintain cell concentration at 0.5×10^6 cells/ml.
6) From day 7 to day 12 count the cells daily. Split wells and add culture medium containing Rapamycin, 1000 U/ml IL-4 (optional), 20 U/ml IL-2 to maintain the cell concentration at 0.5×10^6 cells/ml. On day 12 the beads are removed using a magnet.
7) On day 14-15 the cells can be analyzed for surface marker expression and functional properties.
CD4+ T cells were isolated from peripheral blood by negative and/or positive isolation as described in Example 1. After expansion with IL-2, +/−IL-4, CD3/CD28 Dynabeads®, with or without Rapamycin the expanded cells were analyzed for various surface markers (CD4, CD25, CD62L, CRTh2, CCR4, CXCR3, CCR7) and for intracellular FOXP3 expression and cytokine secretion. Suppressive capacity was analyzed in standard functional assays as described below.

As for `CO[C@H]1C[C@@H]2CC[C@@H](C)[C@@](O)(O2)C(=O)C(=O)N2CCCC[C@H]2C(=O)O[C@H]([C@H](C)C[C@@H]2CC[C@@H](O)[C@H](OC)C2)CC(=O)[C@H](C)/C=C(\C)[C@@H](O)[C@@H](OC)C(=O)[C@H](C)C[C@H](C)/C=C/C=C/C=C/1C` [Rapamycin], the “expanded cells expressing high levels of CD25” value (CD4+ T cells expanded with CD3/CD28 Dynabeads, IL-2, +/−IL-4 and Rapamycin) is on record as “Approximately 70%”. Also, where the note is “CD4+ T cells expanded with rapamycin, 20% in the absence of rapamycin”, the “CD4+CD25+ T cells among expanded cells (flow cytometry, FIG. 2)” value was 80%. Further, under “after expansion with or without Rapamycin, freshly isolated CD4+ T cells 10%”, the “cells expressing FOXP3 after expansion” value was 10%.
